Target: Estrogen receptor (Rattus norvegicus) (UniProt P06211+Q62986)
Experiment: Relative binding affinity for rat uterine estrogen receptor at 25 degree C
Type: protein assay

C[C@]12CC[C@@H]3c4ccc(O)cc4CC[C@H]3[C@@H]1C[C@@H](F)[C@@H]2O
RBA: 60
